In patent US9387221B2, “SDF-1 binding nucleic acids and the use thereof in cancer treatment” (NOXXON Pharma AG, priority 2010, dated 2016):
{PEG40k} = 40 kDa polyethylene glycol

Key:
SDF-1 [1] = target: T1, SDF-1 (Homo sapiens, UniProt P48061); assay: SDF-1 dependent chemotaxis of primary chronic lymphocytic leukemia cells; assay type: cell-based
Target sequence in this assay (P48061 22-89 limits assumed): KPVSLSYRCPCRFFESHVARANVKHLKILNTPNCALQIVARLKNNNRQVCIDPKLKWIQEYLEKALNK

Luc+/GFP+ MM.1S cells = assay: Multiple myeloma animal model in SCID mice; assay type: in vivo
Excerpt: The SDF-1/CXCR4 axis plays a major role in homing and trafficking of multiple myeloma (abbr. MM) cells to the bone marrow (abbr. BM). Therefore, de-adhesion of MM cells from the surrounding BM milieu through SDF-1 inhibition enhances MM sensitivity to therapeutic agents. Azab et al. published a protocol to test the CXCR4 inhibitor AMD3100 potency to disrupt the interaction of MM cells with the BM environment in vivo that affects localization MM cells [, which in turn enhances the sensitivity of MM cells to chemotherapy. […] Based on this protocol (Azab et al. 2009) the SDF-1 binding Spiegelmer NOX-A12 is tested for its potency to disupt the interaction of MM cells with the BM environment in vivo thereby enhancing the sensitivity of the MM cells to therapy.
For the MM animal model severe combined immunodeficient (SCID) mice are used whereby Luc+/GFP+ MM.1S cells (2×10^6/mouse) are injected into the tail vein of SCID mice. After 3 to 4 weeks, sufficient tumor progression is detected by bioluminescence imaging (for protocol see Azab et al. 2009). […]

human SDF-1α = human SDF-1α (Homo sapiens, UniProt P48061); assay: Surface plasmon resonance measurement (Biacore 2000); assay type: binding; details: Spiegelmer (L-RNA), 37° C.
Chain of human SDF-1α (P48061 22-89): as the sequence (P48061 22-89 limits assumed) above
Protocol: The Biacore 2000 instrument (Biacore AB, Uppsala, Sweden) was used to analyze binding of Spiegelmers to human SDF-1α. When coupling of human SDF-1α was to be achieved via amine groups, human SDF-1α was dialyzed against water for 1-2 h (Millipore VSWP mixed cellulose esters; pore size, […]) to remove interfering amines. CM4 sensor chips (Biacore AB, Uppsala, Sweden) were activated before protein coupling by a 35-μl injection of a 1:1 dilution of 0.4 M NHS and 0.1 M EDC at a flow of 5 μl/min. Human MCP-1 or human SDF-1α was then injected in concentrations of 0.1-1.5 μg/ml at a flow of 2 μl/min until the instrument's response was in the range of 1000-2000 RU (relative units). Unreacted NHS esters were deactivated by injection of 35 μl ethanolamine hydrochloride solution (pH 8.5) at a flow of 5 μl/min. The sensor chip was primed twice with binding buffer and equilibrated at 10 μl/min for 1-2 hours until the baseline appeared stable. For all proteins, kinetic parameters and dissociation constants were evaluated by a series of Spiegelmer injections at concentrations of 1000, 500, 250, 125, 62.5, 31.25, and 0 nM in selection buffer (Tris-HCl, 20 mM; NaCl, 137 mM; KCl, 5 mM; CaCl2, 1 mM; MgCl2, 1 mM; Tween20, 0.1% [w/v]; pH 7.4). In all experiments, the analysis was performed at 37° C. using the Kinject command defining an association time of 180 and a dissociation time of 360 seconds at a flow of 10 μl/min. Data analysis and calculation of dissociation constants (KD) was done with the BIAevaluation 3.0 software (BIACORE AB, Uppsala, Sweden) using the Langmuir 1:1 stochiometric fitting algorithm.

SDF-1 [2] = target: T1, SDF-1; assay: Inhibition of SDF-1-induced chemotaxis, U937 cells; assay type: cell-based; details: 3 nM human SDF-1
Protocol: (§1) The human T cell leukemia cell line Jurkat, the human leukemic monocyte lymphoma cell line U937, the human pre-B cell leukemia cell line BV-173 and human pre-B ALL cell line Nalm-6 express CXCR4. […] All cells used were obtained from the DSMZ (Braunschweig). All cell lines were cultivated at 37° C. and 5% CO2 in RPMI 1640 medium with Glutamax (Invitrogen, Karlsruhe, Germany) which contains 10% fetal bovine serum, 100 units/ml penicillin and 100 μg/ml streptomycin (Invitrogen, Karlsruhe, Germany). One day before the experiment, cells were seeded in a new T175 flask with a density of 0.3×10^6/ml (Jurkat, U937, BV-173) or 0.75×10^6/ml (Nalm-6), respectively.
(§2) For the experiment, cells were centrifuged (5 min at 300 g), resuspended, counted and washed once with 15 ml HBH (Hanks balanced salt solution containing 1 mg/ml bovine serum albumin and 20 mM HEPES; Invitrogen, Karlsruhe, Germany). Then the cells were resuspended at 1.33×10^6/ml (Jurkat, U937, BV-173) or 2.67×10^6/ml (Nalm-6), respectively. […]
(§3) For evaluation, fluorescence values were corrected for background fluorescence (no cells in well). Then the difference between experimental conditions with and without SDF-1 was calculated. The value for the sample without Spiegelmer (SDF-1 only) was set 100% and the values for the samples with Spiegelmer were calculated as percent of this. […]
Target sequence in this assay (P48061 22-89): as the sequence (P48061 22-89 limits assumed) above

SDF-1 [3] = target: T1, SDF-1; assay: Inhibition of SDF-1-induced chemotaxis, Nalm-6 cells; assay type: cell-based; details: 0.3 nM human SDF-1
Protocol: as §1, §2, §3
Target sequence in this assay (P48061 22-89): as the sequence (P48061 22-89 limits assumed) above

## 5′-40 kDa-PEG-GCGUGGUGUGAUCUAGAUGUAUUGGCUGAUCCUAGUCAGGUACGC (5' {PEG40k}, sugars by position and backbone not given here) [NOX-A12]
SDF-1 [1]
  block of SDF-1 dependent chemotaxis: effectively blocked
Luc+/GFP+ MM.1S cells; NOX-A12 20 mg/kg s.c. every other day together with bortezomib 0.5 mg/kg i.p. twice a week
  tumor growth (in vivo bioluminescence): reduction of tumor growth
Luc+/GFP+ MM.1S cells; SCID mice, 20 mg/kg NOX-A12 subcutaneous every other day
  MM cell mobilization (ex vivo flow cytometry): MM cell mobilization from bone marrow to the blood
Human SDF-1α
  Kd: 0.2 nM
SDF-1 [2]
  inhibition of SDF-1 induced chemotaxis: Inhibition
SDF-1 [3]
  inhibition of SDF-1 induced chemotaxis: Inhibition
